According to ChEMBL document CHEMBL1125764, “Muscarinic receptor binding profile of para-substituted caramiphen analogues” (J Med Chem, 1991):

Columns and labels:
[1] = target: T1, Muscarinic acetylcholine receptor M2 (Rattus norvegicus, UniProt P10980); assay: Displacement of [3H](-)-quinuclidinyl benzilate(QNB) from muscarinic (M2) receptor in rat heart homogenates; type: tissue-based
T1 sequence (P10980 whole entry): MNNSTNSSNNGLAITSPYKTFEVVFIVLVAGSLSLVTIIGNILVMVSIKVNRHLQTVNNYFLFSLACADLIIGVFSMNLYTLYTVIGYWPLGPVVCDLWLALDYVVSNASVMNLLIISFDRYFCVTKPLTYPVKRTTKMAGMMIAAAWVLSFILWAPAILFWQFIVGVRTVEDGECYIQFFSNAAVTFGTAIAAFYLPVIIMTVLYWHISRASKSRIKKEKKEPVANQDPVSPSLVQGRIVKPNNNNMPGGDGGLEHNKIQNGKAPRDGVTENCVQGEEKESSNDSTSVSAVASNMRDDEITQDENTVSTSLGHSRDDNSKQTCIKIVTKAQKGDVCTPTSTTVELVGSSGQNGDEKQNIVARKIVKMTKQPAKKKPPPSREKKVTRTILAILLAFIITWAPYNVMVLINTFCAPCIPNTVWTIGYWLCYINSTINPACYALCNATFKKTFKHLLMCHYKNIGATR

[2] = target: T2, Muscarinic acetylcholine receptor M1 (Rattus norvegicus, UniProt P08482); parameters: species or system Cortex
T2 sequence (P08482 whole entry): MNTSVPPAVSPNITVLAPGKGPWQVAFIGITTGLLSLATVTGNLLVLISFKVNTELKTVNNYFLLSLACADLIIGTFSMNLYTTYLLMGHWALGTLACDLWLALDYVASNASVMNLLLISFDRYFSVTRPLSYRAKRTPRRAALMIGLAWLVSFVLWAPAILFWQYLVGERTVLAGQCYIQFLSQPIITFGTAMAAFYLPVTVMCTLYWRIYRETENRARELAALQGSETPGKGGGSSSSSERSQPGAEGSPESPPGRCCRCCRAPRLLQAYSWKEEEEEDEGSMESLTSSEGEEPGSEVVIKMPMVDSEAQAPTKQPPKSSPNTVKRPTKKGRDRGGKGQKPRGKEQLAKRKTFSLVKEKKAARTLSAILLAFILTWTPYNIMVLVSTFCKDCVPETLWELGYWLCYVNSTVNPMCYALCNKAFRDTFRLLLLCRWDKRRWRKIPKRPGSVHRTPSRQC

Q: What does the source list for CCN(CC)CCOC(=O)C1(c2ccccc2)CCCC1?
A: Ki [1]: 0.0317 µM; Ki [2]: 0.00121 µM

Q: Which results are given for CCN(CC)CCOC(=O)C1(c2ccc(N)cc2)CCCC1?
A: Ki [1]: 0.116 µM; Ki [2]: 0.02 µM

Q: How did the Ki [1] turn out when CCN(CC)CCOC(=O)C1(c2ccc(C#N)cc2)CCCC1 was run?
A: 0.213 µM

Q: What about the Ki [2] of the same compound?
A: 0.00812 µM

Q: With CCN(CC)CCOC(=O)C1(C2CCCCC2)CCCCC1 [DICYCLOMINE] as the compound, how does the Ki [1] read?
A: 0.0473 µM

Q: Which results are given for CCN(CC)CCOC(=O)C1(c2ccc(N3CCCC3)cc2)CCCC1?
A: Ki [1]: 0.551 µM; Ki [2]: 0.151 µM

Q: For CCN(CC)CCOC(=O)C1(c2ccc([N+](=O)[O-])cc2)CCCC1, which Ki [1] is on record?
A: 0.39 µM

Q: And the Ki [2]?
A: 0.00552 µM

Q: Which Ki [1] does the source give for CCN(CC)CCOC(=O)C1(c2ccc(I)cc2)CCCC1 here?
A: 0.123 µM

Q: And the Ki [2]?
A: 0.00211 µM

Q: CCN(CC)CCOC(=O)C1(c2ccc(-n3cnnn3)cc2)CCCC1 was tested. Which Ki [1] did it give?
A: 0.432 µM

Q: What about the Ki [2] of the same compound?
A: 0.0145 µM
